Measured values: US8410145B2, “Insecticidal compounds” (Syngenta Crop Protection LLC, priority 2007, dated 2013)

How the values were obtained:
Format in all cases: in vivo
[1] = tested on: Plutella xylostella (Diamond Back Moth); assay: Plutella xylostella larvae test on artificial diet; conditions: 144 h, 200 ppm (concentration in well 18 ppm), L2 larvae, larval mortality and growth regulation after 6 days
Description: (§1) Cotton leaf discs were placed on agar in a 24-well microtiter plate and sprayed with test solutions at an application rate of 200 ppm. After drying, the leaf discs were infested with 5 to L1 larvae. The samples were checked for mortality, feeding behavior, and growth regulation 3 days after treatment (DAT). The following compounds gave at least 80% control of Spodoptera littoralis: A1, A2, A3, A4, A6, A9, A10, A11, A12, A13, A14, A15, A16, A19, A20, A22, A23, A25, A26, A27, B1, B2, B3, B5, B6, B7, B8, B9, B11, B12, B13, B15, B16, B18, B19, B20, B21, B22, B24, B26, B27, B28, C1, C2, C3, C4, C5, C6, C7, C8, C9, C10, C12, C13, C16, C19, C20, C21, C22, C23, D1, D2, D3, D4, D5, D6, D7, D8, D9, D10, D11, D12, D13, D14, D15, D16, D17, D18, D19, D20, D21, D22, D23, D24. Heliothis virescens (Tobacco Budworm): Eggs (0-24 h old) were placed in 24-well microtiter plate on artificial diet and treated with test solutions at an application rate of 200 ppm (concentration in well 18 ppm) by pipetting. After an incubation period of 4 days, samples were checked for egg mortality, larval mortality, and growth regulation. The following compounds gave at least 80% control of Heliothis virescens: A1, A2, A3, A4, A13, A15, A17, A19, A20, A22, A23, A25, A26, A28, B1, B2, B3, B5, B6, B7, B9, B11, B13, B15, B18, B19, B20, B21, B25, B26, B27, B28, C1, C2, C3, C4, C5, C6, C7, C8, C9, C10, C12, C14, C16, C17, C19, C20, C21, C22, D1, D2, D3, D4, D5, D6, D7, D8, D9, D10, D11, D12, D13, D14, D15, D16, D17, D18, D19, D20, D21, D22, D23, E1, E2, E3, E4, E5. Plutella xylostella (Diamond Back Moth): 24-well microtiter plate (MTP) with artificial diet was treated with test solutions at an application rate of 200 ppm (concentration in well 18 ppm) by pipetting. After drying, the MTP's were infested with L2 larvae (7-12 per well). After an incubation period of 6 days, samples were checked for larval mortality and growth regulation. The following compounds gave at least 80% control of Plutella xylostella: A1, A3, A4, A10, All, A15, A19, A23, A25, B1, B2, B3, B5, B6, B7, B8, B9, B11, B13, B15, B18, B19, B20, B21, B26, B27, B28, C1, C2, C3, C4, C6, C7, C8, C9, C12, C16, C19, C20, C22, D1, D2, D3, D4, D5, D6, D7, D8, D9, D10, D12, D13, D14, D15, D16, D17, D18, D19, D20, D21, D22, D23, E1, E3, E5. Diabrotica balteata (Corn Root Worm): A 24-well microtiter plate (MTP) with artificial diet was treated with test solutions at an application rate of 200 ppm (concentration in well 18 ppm) by pipetting. After drying, the MTP's were infested with L2 larvae (6-10 per well). After an incubation period of 5 days, samples were checked for larval mortality and growth regulation. The following compounds gave at least 80% control of Diabrotica balteata: A2, A3, A4, A9, A11, A12, A13, A14, A15, A17, A19, A21, A22, A23, A24, A25, A26, B1, B2, B3, B6, B7, B8, B11, B13, B14, B15, B18, B19, B20, B21, B22, B26, B28, C1, C2, C3, C4, C5, C6, C7, C8, C9, C10, C12, C14, C15, C16, C19, C20, C21, C22, C23, C26, D1, D2, D4, D5, D6, D7, D8, D9, D10, D12, D14, D15, D16, D17, D18, D19, D20, D21, D22, D23, E2, E3, E5. Thrips tabaci (Onion Thrips): Sunflower leaf discs were placed on agar in a 24-well microtiter plate and sprayed with test solutions at an application rate of 200 ppm. After drying, the leaf discs were infested with an […] population of mixed ages. After an incubation period of 7 days, samples were checked for mortality. The following compounds gave at least 80% control of Thrips tabaci: B1, B7, B11, B15, B18, B19, B28, D1, D2, D3, D4, D5, D6, D7, D8, D9, D10, D12, D16, D18, D19, D20, D21, D23. Tetranychus urticae (Two-Spotted Spider Mite): Bean leaf discs on agar in 24-well microtiter plates were sprayed with test solutions at an application rate of 200 ppm. After drying, the leaf discs are infested with mite populations of mixed ages. 8 days later, discs are checked for egg mortality, larval mortality, and adult mortality. […]

[2] = tested on: Spodoptera littoralis (Egyptian Cotton Leafworm); assay: Spodoptera littoralis cotton leaf disc spray test; conditions: foliar, 72 h, 200 ppm spray on cotton leaf discs, L1 larvae, mortality, feeding behavior, growth regulation 3 DAT
Description: as §1

[3] = tested on: Heliothis virescens (Tobacco Budworm); assay: Heliothis virescens egg test on artificial diet; conditions: 96 h, 200 ppm (concentration in well 18 ppm), eggs 0-24 h old on artificial diet, egg mortality, larval mortality, growth regulation after 4 days
Description: as §1

[4] = tested on: Diabrotica balteata (Corn Root Worm); assay: Diabrotica balteata larvae test on artificial diet; conditions: 120 h, 200 ppm (concentration in well 18 ppm), L2 larvae, larval mortality and growth regulation after 5 days
Description: as §1

[5] = tested on: Tetranychus urticae (Two-Spotted Spider Mite); assay: Tetranychus urticae bean leaf disc spray test; conditions: foliar, 192 h, 200 ppm spray on bean leaf discs, mite populations of mixed ages, egg, larval and adult mortality 8 days later
Description: as §1

[6] = tested on: Spodoptera littoralis, Heliothis virescens, Plutella xylostella, Diabrotica balteata, Thrips tabaci, Tetranychus urticae; assay: Pesticidal tests, same protocols (all six pests taken together); conditions: same protocols as b207 (200 ppm), under the test conditions
Description: as §1

[7] = tested on: Thrips tabaci (Onion Thrips); assay: Thrips tabaci sunflower leaf disc spray test; conditions: foliar, 168 h, 200 ppm spray on sunflower leaf discs, population of mixed ages, mortality after 7 days
Description: as §1

SMILES | pest or weed control at 200 ppm [1] [%] | pest or weed control at 200 ppm [2] [%] | pest or weed control at 200 ppm [3] [%] | pest or weed control at 200 ppm [4] [%] | pest or weed control at 200 ppm [5] [%] | effect on mortality, feeding behavior, or growth regulation [6] | pest or weed control at 200 ppm [7] [%]
N#Cc1ccc(C(=O)Nc2cccc(C3=NOC(c4cc(Cl)cc(Cl)c4)(C(F)(F)F)C3)c2)cc1 (stereo not shown) [A4, 4-cyano-N-{3-[5-(3,5-dichloro-phenyl)-5-trifluoromethyl-4,5-dihydro-isoxazol-3-yl]phenyl}-benzamide] | ≥ 80 | ≥ 80 | ≥ 80 | ≥ 80 | ≥ 80 |  | 
O=C(CBr)Nc1cccc(C2=NOC(c3cc(Cl)cc(Cl)c3)(C(F)(F)F)C2)c1 (stereo not shown) [A8] |  |  |  |  |  | little or no effect | 
O=C(Nc1cccc(C2=NOC(c3cc(Cl)cc(Cl)c3)(C(F)(F)F)C2)c1F)c1ccccc1F (stereo not shown) [B1] | ≥ 80 | ≥ 80 | ≥ 80 | ≥ 80 |  |  | ≥ 80
N#Cc1ccc(C(=O)Nc2cccc(C3=NOC(c4cc(Cl)cc(Cl)c4)(C(F)(F)F)C3)c2F)cc1 (stereo not shown) [B4] |  |  |  |  |  | little or no effect | 
O=C(Nc1cccc(C2=NOC(c3cc(Cl)cc(Cl)c3)(C(F)(F)F)C2)c1F)c1ccc([N+](=O)[O-])cc1 (stereo not shown) [B5] | ≥ 80 | ≥ 80 | ≥ 80 |  | ≥ 80 |  | 
O=C(Nc1cccc(C2=NOC(c3cc(Cl)cc(Cl)c3)(C(F)(F)F)C2)c1F)c1ccco1 (stereo not shown) [B10] |  |  |  |  |  | little or no effect | 
COc1ccccc1C(=O)Nc1cccc(C2=NOC(c3cc(Cl)cc(Cl)c3)(C(F)(F)F)C2)c1F (stereo not shown) [B15] | ≥ 80 | ≥ 80 | ≥ 80 | ≥ 80 |  |  | ≥ 80
O=C(Nc1cccc(C2=NOC(c3cc(Cl)cc(Cl)c3)(C(F)(F)F)C2)c1F)c1ccc(F)cc1 (stereo not shown) [B17] |  |  |  |  |  | little or no effect | 
Cc1ccc(C(=O)Nc2cc(C3=NOC(c4cc(Cl)cc(Cl)c4)(C(F)(F)F)C3)ccc2F)cc1 (stereo not shown) [C9] | ≥ 80 | ≥ 80 | ≥ 80 | ≥ 80 | ≥ 80 |  | 
COc1ccccc1C(=O)Nc1cc(C2=NOC(c3cc(Cl)cc(Cl)c3)(C(F)(F)F)C2)ccc1F (stereo not shown) [C18] |  |  |  |  |  | little or no effect | 
O=C(Nc1cc(C2=NOC(c3cc(Cl)cc(Cl)c3)(C(F)(F)F)C2)ccc1F)c1ccc(F)cc1F (stereo not shown) [C24] |  |  |  |  |  | little or no effect | 
N#Cc1ccc(C(=O)Nc2cc(C3=NOC(c4cc(Cl)cc(Cl)c4)(C(F)(F)F)C3)ccc2C#N)cc1 (stereo not shown) [D1] | ≥ 80 | ≥ 80 | ≥ 80 | ≥ 80 | ≥ 80 |  | ≥ 80
N#Cc1ccc(C2=NOC(c3cc(Cl)cc(Cl)c3)(C(F)(F)F)C2)cc1NC(=O)c1ccccc1 (stereo not shown) [D2] | ≥ 80 | ≥ 80 | ≥ 80 | ≥ 80 | ≥ 80 |  | ≥ 80
N#Cc1ccc(C2=NOC(c3cc(Cl)cc(Cl)c3)(C(F)(F)F)C2)cc1NC(=O)c1ccccc1F (stereo not shown) [D5] | ≥ 80 | ≥ 80 | ≥ 80 | ≥ 80 |  |  | ≥ 80
Cc1ccccc1C(=O)Nc1cc(C2=NOC(c3cc(Cl)cc(Cl)c3)(C(F)(F)F)C2)ccc1C#N (stereo not shown) [D6] | ≥ 80 | ≥ 80 | ≥ 80 | ≥ 80 | ≥ 80 |  | ≥ 80
N#Cc1ccc(C2=NOC(c3cc(Cl)cc(Cl)c3)(C(F)(F)F)C2)cc1NC(=O)c1ccccc1Cl (stereo not shown) [D7] | ≥ 80 | ≥ 80 | ≥ 80 | ≥ 80 | ≥ 80 |  | ≥ 80
N#Cc1ccc(C2=NOC(c3cc(Cl)cc(Cl)c3)(C(F)(F)F)C2)cc1NC(=O)c1ccc([N+](=O)[O-])cc1 (stereo not shown) [D8] | ≥ 80 | ≥ 80 | ≥ 80 | ≥ 80 | ≥ 80 |  | ≥ 80
Cc1ccc(C(=O)Nc2cc(C3=NOC(c4cc(Cl)cc(Cl)c4)(C(F)(F)F)C3)ccc2C#N)cc1 (stereo not shown) [D9] | ≥ 80 | ≥ 80 | ≥ 80 | ≥ 80 | ≥ 80 |  | ≥ 80
N#Cc1ccc(C2=NOC(c3cc(Cl)cc(Cl)c3)(C(F)(F)F)C2)cc1NC(=O)c1ccc(F)cc1 (stereo not shown) [D18] | ≥ 80 | ≥ 80 | ≥ 80 | ≥ 80 | ≥ 80 |  | ≥ 80
N#Cc1ccc(C2=NOC(c3cc(Cl)cc(Cl)c3)(C(F)(F)F)C2)cc1NC(=O)c1ccc(F)cc1F (stereo not shown) [D23] | ≥ 80 | ≥ 80 | ≥ 80 | ≥ 80 |  |  | ≥ 80
